Converted amounts (≈) assume the structure as drawn. Values belong to the molecule of their own block, whether it stands above or below them.
Assays:
[1] = Apparent thermodynamic functions of dissolution (van't Hoff); format: physicochemical; settings: Thm = 302.98 K
Description: The dissolution of the new hybrids was characterized based on apparent thermodynamic parameters obtained from temperature dependences of solubility of the studied compounds in the selected solvents (Figure 6). […] The van’t Hoff enthalpy of dissolution can be expressed as the inclination of a tangent to a solubility curve plotted as lnx vs. (1/T − 1/Thm) by Equation (6): (6) ΔHsolo=−R(∂lnx/∂(1/T−1/Thm))=−R⋅slope where R = 8.314 J⋅K^−1·mol^−1 is the universal gas constant. Thm = 302.98 K denotes the mean harmonic temperature, which was calculated by Equation (7):(7) Thm=n/∑i=1n1/Ti where n represented the number of experimental temperatures. The apparent standard Gibbs energy was evaluated by Equation (8):(8) ΔGsolo=−RThm×intersept
The apparent standard solution entropies were obtained from the well-known relationship:(9) ΔSsolo=ΔHsolo−ΔGsolo/Thm
The calculated apparent thermodynamic solubility functions of dissolution (Gibbs energy, enthalpy, and entropy) at standard temperature 298.15 K for hybrid compounds were collected in Table 4.

[2] = Equilibrium (thermodynamic) solubility, shake-flask method; format: physicochemical; settings: for Solubility S × 10^3 / Solubility x × 10^3 / Solubility x × 10^5 / Solubility S × 10^4 / Solubility x × 10^6 / Solubility x × 10^4: amorphous state; for solubility at 2 days: 25 °C, organic solvent or mixture, thermodynamic from solid, 1-octanol, text values match 298.15 K, read-out: Solubility S in the alcohol (1-octanol); for Solubility S × 10^4 / Solubility x × 10^6: Buffer pH 7.4
Description: The experimental solubility values of hybrids in the selected solvents within the temperature range of 293.15–313.15 K expressed in molarity are summarized in Table 2. The comparative analysis of the reference values of the solubility of compounds I–III at the standard temperature of 298.15 K is given as a histogram in Figure 3.
Shake-flask method as “gold standard” was used for determination thermodynamic solubility synthesized compounds in buffer solutions (pH 2.0 and 7.4) and 1-octanol in the temperature range of 293.15–313.15 K with a step of 5 degrees at atmospheric pressure. Excessive amounts of compound were added to glass vials c 12 mL of selected solvent. The heterogeneous system is closed with a lid and vigorously stirred at the selected temperature in an air thermostat with a stirring device until the solubility equilibrium has been reached. The time required for establishing a constant value of the solution concentration was determined from the solubility kinetic dependences and averaged 2 days. The equilibrated solutions were first survived to aim sedimentation of solid phase during 10 h, then centrifuged at 20,000 rpm for 30 min at specific temperatures, and then quickly filtered using a syringe equipped with a hydrophilic filter Millex-GV 0.22 µm (Ireland). Concentration of saturated solution was measured using spectrophotometer Cary-50 (Varian, USA) with an accuracy of 2–4%. The absorbances of compounds studied were measured at wavelengths 332 and 334 nm in buffer solutions and 1-octanol, respectively. If necessary, an aliquot was diluted with an appropriate solvent. The final pH of the saturated buffers was monitored. The solubility of compounds in each solvent was determined by repeating the procedure three times.
Mole fraction concentration was calculated from solubility value S expressed in mol∙L^−1 using Equation (10):(10) x=M2S/S(M2−M1)+1000ρ, where M1 and M2 are the molar masses of solute and solvent, respectively, and ρ (g∙cm^−3) is the density of the pure solvents. The mole fraction solubilities for buffer solutions were calculated taking into account the buffer compositions. The used values of densities are given in Table S6 in Supplementary Material.

Compound: Cc1ccc(-n2c(=S)sc3c(=O)n(CCCN4CCN(CC(O)(Cn5cncn5)c5ccc(F)cc5F)CC4)cnc32)cc1 (centres unmarked) [I, 6-[3-[4-[2-(2,4-difluorophenyl)-2-hydroxy-3-(1H-1,2,4-triazol-1-yl)propyl]-1-piperazinyl]propyl]-2,3-dihydro-3-(4-methylphenyl)-2-thioxo-thiazolo[4,5-d]pyrimidin-7(6H)-one]
TΔSsolo ([1]; 1-Octanol): -1.48 kcal/mol
ΔGsolo ([1]; 1-Octanol): 4.02 ± 0.048 kcal/mol
ΔHsolo ([1]; 1-Octanol): 2.53 ± 0.048 kcal/mol
ΔSsolo ([1]; 1-Octanol): −20.8 ± 1.1 J·mol^−1·K^−1
TΔSsolo ([1]; Buffer pH 2.0): -3.23 kcal/mol
ΔGsolo ([1]; Buffer pH 2.0): 6.07 ± 0.12 kcal/mol
ΔHsolo ([1]; Buffer pH 2.0): 2.84 ± 0.024 kcal/mol
ΔSsolo ([1]; Buffer pH 2.0): −45.2 ± 2.4 J·mol^−1·K^−1
TΔSsolo ([1]; Buffer pH 7.4): -4.54 kcal/mol
ΔGsolo ([1]; Buffer pH 7.4): 7.7 ± 0.14 kcal/mol
ΔHsolo ([1]; Buffer pH 7.4): 3.15 ± 0.024 kcal/mol
ΔSsolo ([1]; Buffer pH 7.4): −63.6 ± 4.1 J·mol^−1·K^−1
Solubility S × 10^3 ([2]; 1-Octanol, 293.15 K): 7.0781 mol∙L^−1 (printed as S × 10^3)
Solubility x × 10^3 ([2]; 1-Octanol, 293.15 K): 1.1199 mol. frac. (printed as x × 10^
Solubility S × 10^3 ([2]; 1-Octanol, 298.15 K): 7.5389 mol∙L^−1 (printed as S × 10^3)
Solubility x × 10^3 ([2]; 1-Octanol, 298.15 K): 1.1981 mol. frac. (printed as x × 10^
Solubility S × 10^3 ([2]; 1-Octanol, 303.15 K): 8.0826 mol∙L^−1 (printed as S × 10^3)
Solubility x × 10^3 ([2]; 1-Octanol, 303.15 K): 1.2903 mol. frac. (printed as x × 10^
Solubility S × 10^3 ([2]; 1-Octanol, 308.15 K): 8.6264 mol∙L^−1 (printed as S × 10^3)
Solubility x × 10^3 ([2]; 1-Octanol, 308.15 K): 1.3835 mol. frac. (printed as x × 10^
Solubility S × 10^3 ([2]; 1-Octanol, 313.15 K): 9.2070 mol∙L^−1 (printed as S × 10^3)
Solubility x × 10^3 ([2]; 1-Octanol, 313.15 K): 1.4834 mol. frac. (printed as x × 10^
solubility at 2 days [2]: 7.54 mM (≈ 4820 µg/mL)
Solubility S × 10^3 ([2]; Buffer pH 2.0, 293.15 K): 1.8307 mol∙L^−1 (printed as S × 10^3)
Solubility x × 10^5 ([2]; Buffer pH 2.0, 293.15 K): 3.3040 mol. frac. (printed as x × 10^
Solubility S × 10^3 ([2]; Buffer pH 2.0, 298.15 K): 1.9773 mol∙L^−1 (printed as S × 10^3)
Solubility x × 10^5 ([2]; Buffer pH 2.0, 298.15 K): 3.5732 mol. frac. (printed as x × 10^
Solubility S × 10^3 ([2]; Buffer pH 2.0, 303.15 K): 2.1311 mol∙L^−1 (printed as S × 10^3)
Solubility x × 10^5 ([2]; Buffer pH 2.0, 303.15 K): 3.8570 mol. frac. (printed as x × 10^
Solubility S × 10^3 ([2]; Buffer pH 2.0, 308.15 K): 2.3027 mol∙L^−1 (printed as S × 10^3)
Solubility x × 10^5 ([2]; Buffer pH 2.0, 308.15 K): 4.1749 mol. frac. (printed as x × 10^
Solubility S × 10^3 ([2]; Buffer pH 2.0, 313.15 K): 2.4851 mol∙L^−1 (printed as S × 10^3)
Solubility x × 10^5 ([2]; Buffer pH 2.0, 313.15 K): 4.5144 mol. frac. (printed as x × 10^
Solubility S × 10^4 ([2]; 293.15 K): 1.1295 mol∙L^−1 (printed as S × 10^4)
Solubility x × 10^6 ([2]; 293.15 K): 2.0541 mol. frac. (printed as x × 10^
Solubility S × 10^4 ([2]; 298.15 K): 1.2441 mol∙L^−1 (printed as S × 10^4)
Solubility x × 10^6 ([2]; 298.15 K): 2.2653 mol. frac. (printed as x × 10^
Solubility S × 10^4 ([2]; 303.15 K): 1.3510 mol∙L^−1 (printed as S × 10^4)
Solubility x × 10^6 ([2]; 303.15 K): 2.4636 mol. frac. (printed as x × 10^
Solubility S × 10^4 ([2]; 308.15 K): 1.4682 mol∙L^−1 (printed as S × 10^4)
Solubility x × 10^6 ([2]; 308.15 K): 2.6820 mol. frac. (printed as x × 10^
Solubility S × 10^4 ([2]; 313.15 K): 1.5920 mol∙L^−1 (printed as S × 10^4)
Solubility x × 10^6 ([2]; 313.15 K): 2.9135 mol. frac. (printed as x × 10^

TΔSsolo ([1]; 1-Octanol): -2.49 kcal/mol
ΔGsolo ([1]; 1-Octanol): 4.16 ± 0.072 kcal/mol
ΔHsolo ([1]; 1-Octanol): 1.65 ± 0.024 kcal/mol
ΔSsolo ([1]; 1-Octanol): −35.1 ± 1.8 J·mol^−1·K^−1
TΔSsolo ([1]; Buffer pH 2.0): -1.36 kcal/mol
ΔGsolo ([1]; Buffer pH 2.0): 6.36 ± 0.12 kcal/mol
ΔHsolo ([1]; Buffer pH 2.0): 5 ± 0.048 kcal/mol
ΔSsolo ([1]; Buffer pH 2.0): −19.1 ± 1.1 J·mol^−1·K^−1
TΔSsolo ([1]; Buffer pH 7.4): -5.09 kcal/mol
ΔGsolo ([1]; Buffer pH 7.4): 7.15 ± 0.14 kcal/mol
ΔHsolo ([1]; Buffer pH 7.4): 2.03 ± 0.024 kcal/mol
ΔSsolo ([1]; Buffer pH 7.4): −71.4 ± 4.2 J·mol^−1·K^−1
Solubility S × 10^3 ([2]; 1-Octanol, 293.15 K): 5.3994 mol∙L^−1 (printed as S × 10^3)
Solubility x × 10^4 ([2]; 1-Octanol, 293.15 K): 8.5358 mol. frac. (printed as x × 10^
Solubility S × 10^3 ([2]; 1-Octanol, 298.15 K): 5.6703 mol∙L^−1 (printed as S × 10^3)
Solubility x × 10^4 ([2]; 1-Octanol, 298.15 K): 9.0027 mol. frac. (printed as x × 10^
Solubility S × 10^3 ([2]; 1-Octanol, 303.15 K): 5.8834 mol∙L^−1 (printed as S × 10^3)
Solubility x × 10^4 ([2]; 1-Octanol, 303.15 K): 9.3813 mol. frac. (printed as x × 10^
Solubility S × 10^3 ([2]; 1-Octanol, 308.15 K): 6.1187 mol∙L^−1 (printed as S × 10^3)
Solubility x × 10^4 ([2]; 1-Octanol, 308.15 K): 9.8001 mol. frac. (printed as x × 10^
Solubility S × 10^3 ([2]; 1-Octanol, 313.15 K): 6.3807 mol∙L^−1 (printed as S × 10^3)
Solubility x × 10^4 ([2]; 1-Octanol, 313.15 K): 10.2644 mol. frac. (printed as x × 10^
solubility at 2 days [2]: 5.67 mM (≈ 3640 µg/mL)
Solubility S × 10^3 ([2]; Buffer pH 2.0, 293.15 K): 1.0755 mol∙L^−1 (printed as S × 10^3)
Solubility x × 10^5 ([2]; Buffer pH 2.0, 293.15 K): 1.9402 mol. frac. (printed as x × 10^
Solubility S × 10^3 ([2]; Buffer pH 2.0, 298.15 K): 1.2330 mol∙L^−1 (printed as S × 10^3)
Solubility x × 10^5 ([2]; Buffer pH 2.0, 298.15 K): 2.2272 mol. frac. (printed as x × 10^
Solubility S × 10^3 ([2]; Buffer pH 2.0, 303.15 K): 1.4273 mol∙L^−1 (printed as S × 10^3)
Solubility x × 10^5 ([2]; Buffer pH 2.0, 303.15 K): 2.5822 mol. frac. (printed as x × 10^
Solubility S × 10^3 ([2]; Buffer pH 2.0, 308.15 K): 1.6250 mol∙L^−1 (printed as S × 10^3)
Solubility x × 10^5 ([2]; Buffer pH 2.0, 308.15 K): 2.9451 mol. frac. (printed as x × 10^
Solubility S × 10^3 ([2]; Buffer pH 2.0, 313.15 K): 1.8394 mol∙L^−1 (printed as S × 10^3)
Solubility x × 10^5 ([2]; Buffer pH 2.0, 313.15 K): 3.3404 mol. frac. (printed as x × 10^
Solubility S × 10^4 ([2]; 293.15 K): 3.0126 mol∙L^−1 (printed as S × 10^4)
Solubility x × 10^6 ([2]; 293.15 K): 5.4794 mol. frac. (printed as x × 10^
Solubility S × 10^4 ([2]; 298.15 K): 3.1917 mol∙L^−1 (printed as S × 10^4)
Solubility x × 10^6 ([2]; 298.15 K): 5.8122 mol. frac. (printed as x × 10^
Solubility S × 10^4 ([2]; 303.15 K): 3.3788 mol∙L^−1 (printed as S × 10^4)
Solubility x × 10^6 ([2]; 303.15 K): 6.1623 mol. frac. (printed as x × 10^
Solubility S × 10^4 ([2]; 308.15 K): 3.5539 mol∙L^−1 (printed as S × 10^4)
Solubility x × 10^6 ([2]; 308.15 K): 6.4929 mol. frac. (printed as x × 10^
Solubility S × 10^4 ([2]; 313.15 K): 3.7469 mol∙L^−1 (printed as S × 10^4)
Solubility x × 10^6 ([2]; 313.15 K): 6.8581 mol. frac. (printed as x × 10^
Compound: O=c1c2sc(=S)n(-c3ccc(F)cc3)c2ncn1CCCN1CCN(CC(O)(Cn2cncn2)c2ccc(F)cc2F)CC1 (centres unmarked) [II, 6-[3-[4-[2-(2,4-difluorophenyl)-2-hydroxy-3-(1H-1,2,4-triazol-1-yl)propyl]-1-piperazinyl]propyl]-2,3-dihydro-3-(4-fluorophenyl)-2-thioxo-thiazolo[4,5-d]pyrimidin-7(6H)-one]

Reference: article PMC9573696, “Experimental Examination of Solubility and Lipophilicity as Pharmaceutically Relevant Points of Novel Bioactive Hybrid Compounds” (Molecules, 2022)
